# Measured values published in patent US20260232657A1, “MELANOCORTIN SUBTYPE-2 RECEPTOR (MC2R) ANTAGONIST FOR THE TREATMENT OF ACTH-DEPENDENT CUSHING'S SYNDROME” (CRINETICS PHARMACEUTICALS, INC., priority 2023, published 2026).
# Legend:
# [1] = Safety pharmacology studies
# Experimental: (§1) The overall nonclinical safety of Compound 1 was assessed in 28-day and 3-month repeat dose general toxicity studies in rat and dog and in a battery of in vitro and in vivo genotoxicity and safety pharmacology studies.
# [2] = In vitro and in vivo genotoxicity studies; settings: in vitro and in vivo battery
# Experimental: as §1
# corticosterone [3] = assay: ACTH excess model: rats given exogenous ACTH (1-24) via subcutaneous osmotic pump over 7 days; type: in vivo, rat; settings: ACTH (1-24) osmotic pump, daily oral doses
# Experimental: (§2) Disease models mimicking states of ACTH excess and hypercortisolism included rats administered exogenous ACTH (1-24) via subcutaneous osmotic pump over 7 days and mice implanted with ACTH-secreting corticotroph AtT-20 tumor cells; animals received daily oral doses of placebo or Compound 1. […] However, six days after discontinuation of the highest dose of Compound 1 (75 mg/kg for 15 days), Ang-II stimulated aldosterone was suppressed, but sodium and potassium levels were normal.
# [4] = Repeat dose general toxicity study in rat; type: in vivo
# Experimental: as §1
# CYP2C8 = molecular target: T1, CYP2C8 (Homo sapiens, UniProt P10632); assay: CYP involvement in metabolic clearance; type: in vitro ADME
# T1 sequence (P10632 1-490): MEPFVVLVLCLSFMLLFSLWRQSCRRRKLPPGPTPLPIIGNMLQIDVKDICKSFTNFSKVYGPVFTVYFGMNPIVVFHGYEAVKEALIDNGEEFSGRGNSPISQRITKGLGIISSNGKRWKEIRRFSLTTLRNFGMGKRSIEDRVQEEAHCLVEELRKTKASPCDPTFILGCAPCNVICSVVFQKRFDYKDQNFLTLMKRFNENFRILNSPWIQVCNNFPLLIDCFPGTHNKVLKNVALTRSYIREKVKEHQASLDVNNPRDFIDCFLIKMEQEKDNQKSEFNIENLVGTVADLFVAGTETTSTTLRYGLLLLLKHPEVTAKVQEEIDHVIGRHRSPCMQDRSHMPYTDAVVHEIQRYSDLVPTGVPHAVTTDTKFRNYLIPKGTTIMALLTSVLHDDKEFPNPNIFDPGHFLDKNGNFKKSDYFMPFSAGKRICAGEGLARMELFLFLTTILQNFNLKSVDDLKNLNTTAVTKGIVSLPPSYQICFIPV
# Text: (§3) In vitro studies evaluated the metabolism of Compound 1 in plasma, liver microsomes, and/or 9000 g supernatant fraction of the liver homogenate (liver S9) from various species (including human).
# CYP2D6 = CYP2D6 (Homo sapiens, UniProt P10635); assay: CYP involvement in metabolic clearance; type: in vitro ADME
# Text: as §3
# CYP3A4 = CYP3A4 (Homo sapiens, UniProt P08684); assay: CYP involvement in metabolic clearance; type: in vitro ADME
# Text: as §3
# MC2R [5] = molecular target: T2, MC2R (Homo sapiens, UniProt Q01718); assay: ACTH-mediated G-protein activation and cAMP production; type: biochemical
# [6] = In vitro metabolism in plasma, liver microsomes and liver S9; type: in vitro ADME, various species (including human); settings: liver microsomes, liver S9
# Text: as §3
# [7] = Previous study in healthy volunteers; type: in vivo, human
# Text: It has therefore been identified as an AESI in this study and may lead to dose limiting toxicity.
# [8] = Repeat dose general toxicity study in dog; type: in vivo
# Experimental: as §1
# [9] = tested on: other human melanocortin receptor subtypes; assay: Selectivity over other melanocortin receptor subtypes; type: binding; settings: MC2R vs other subtypes
# corticosterone [10] = assay: ACTH excess model: mice implanted with ACTH-secreting corticotroph AtT-20 tumor cells; type: in vivo, mouse; settings: mice with AtT-20 tumor cells, daily oral doses
# Experimental: as §2
# aldosterone = assay: ACTH- and Angiotensin-II-stimulated aldosterone in vivo
# Experimental: as §2
# 5-HT1B receptor = 5-HT1B receptor (Homo sapiens, UniProt P28222); assay: Screen for potential off-target activities; type: biochemical
# [11] = Effect of food on absorption; type: in vivo, human; settings: oral tablet
# Experimental: Participants will receive Compound 1 at the appropriate dose for their cohort as a single daily dose for 10 days at approximately 8 am. Tablets will be taken orally with 240 mL of water.
# MC2R [12] = molecular target: T2, MC2R; assay: MC2R antagonist affinity / ACTH binding to the receptor
# [13] = tested on: corticosterone secretion after ACTH (1-24); assay: ACTH (1-24) challenge, corticosterone secretion in rats; type: in vivo, rat
# [14] = six days after discontinuation of 75 mg/kg for 15 days
# T2 sequence (Q01718 whole entry): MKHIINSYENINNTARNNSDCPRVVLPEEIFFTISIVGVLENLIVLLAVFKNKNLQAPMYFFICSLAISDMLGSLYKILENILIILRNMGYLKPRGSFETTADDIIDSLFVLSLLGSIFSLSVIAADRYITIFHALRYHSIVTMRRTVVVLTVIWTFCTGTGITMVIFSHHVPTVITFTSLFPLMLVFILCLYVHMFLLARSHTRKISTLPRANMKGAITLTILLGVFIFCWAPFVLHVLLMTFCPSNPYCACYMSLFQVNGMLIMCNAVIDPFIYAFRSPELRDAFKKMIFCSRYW
# T2 sequence (Q8TCY5 whole entry partner): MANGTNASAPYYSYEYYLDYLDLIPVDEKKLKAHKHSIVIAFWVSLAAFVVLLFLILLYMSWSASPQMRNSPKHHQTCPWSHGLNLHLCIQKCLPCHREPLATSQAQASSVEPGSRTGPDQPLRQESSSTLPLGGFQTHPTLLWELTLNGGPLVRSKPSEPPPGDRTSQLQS
# 5-HT1B receptor, sequence (P28222 whole entry): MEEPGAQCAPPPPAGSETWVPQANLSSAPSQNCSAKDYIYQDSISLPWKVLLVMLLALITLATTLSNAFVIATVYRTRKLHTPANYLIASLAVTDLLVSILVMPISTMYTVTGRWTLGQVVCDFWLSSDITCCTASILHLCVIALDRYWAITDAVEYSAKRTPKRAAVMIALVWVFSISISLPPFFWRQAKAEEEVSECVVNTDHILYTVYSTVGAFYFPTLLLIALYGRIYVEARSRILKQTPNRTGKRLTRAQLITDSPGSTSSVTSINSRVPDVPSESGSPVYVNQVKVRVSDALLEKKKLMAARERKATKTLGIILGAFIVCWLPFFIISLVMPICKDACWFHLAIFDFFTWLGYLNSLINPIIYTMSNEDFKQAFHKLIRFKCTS
# CYP3A4, sequence (P08684 whole entry): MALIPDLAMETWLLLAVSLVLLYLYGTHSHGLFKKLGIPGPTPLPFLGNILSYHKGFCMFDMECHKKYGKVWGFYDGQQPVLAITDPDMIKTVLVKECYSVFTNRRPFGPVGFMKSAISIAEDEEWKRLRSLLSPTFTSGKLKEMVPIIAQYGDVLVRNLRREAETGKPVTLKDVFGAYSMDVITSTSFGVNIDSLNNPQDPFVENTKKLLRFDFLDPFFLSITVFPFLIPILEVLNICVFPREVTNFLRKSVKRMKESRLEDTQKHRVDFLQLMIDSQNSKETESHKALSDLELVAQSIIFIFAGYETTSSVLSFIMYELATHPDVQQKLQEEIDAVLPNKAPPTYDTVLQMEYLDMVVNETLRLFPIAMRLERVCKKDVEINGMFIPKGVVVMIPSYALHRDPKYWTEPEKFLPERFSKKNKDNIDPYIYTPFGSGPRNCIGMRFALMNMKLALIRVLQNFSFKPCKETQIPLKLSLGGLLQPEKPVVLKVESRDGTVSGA
# CYP2D6, sequence (P10635 whole entry): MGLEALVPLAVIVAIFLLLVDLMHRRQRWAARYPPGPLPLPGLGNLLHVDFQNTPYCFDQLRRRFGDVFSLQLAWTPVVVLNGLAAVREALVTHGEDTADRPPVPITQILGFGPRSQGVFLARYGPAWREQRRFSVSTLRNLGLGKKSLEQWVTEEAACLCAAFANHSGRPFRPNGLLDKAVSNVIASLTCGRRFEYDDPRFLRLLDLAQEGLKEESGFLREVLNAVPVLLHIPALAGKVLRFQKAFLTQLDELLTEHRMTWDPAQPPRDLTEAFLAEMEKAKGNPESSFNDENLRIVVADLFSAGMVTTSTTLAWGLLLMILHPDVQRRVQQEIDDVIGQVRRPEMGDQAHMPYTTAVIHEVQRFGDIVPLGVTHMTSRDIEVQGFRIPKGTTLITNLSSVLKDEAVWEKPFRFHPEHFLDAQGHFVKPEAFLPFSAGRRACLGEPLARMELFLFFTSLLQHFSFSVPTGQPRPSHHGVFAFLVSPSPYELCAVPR
compound,measurement,setting,value
"CCOc1ccccc1-c1ccc(N2CCN(C(=O)C3(C(F)(F)F)CCC3)C[C@H]2CC)c(C(=O)N[C@@H]2CN3CCC2CC3)n1 [Compound 1, 6-(2-ethoxyphenyl)-3-((R)-2-ethyl-4-(1-(trifluoromethyl)cyclobutane-1-carbonyl)piperazin-1-yl)-N—((S)-quinuclidin-3-yl) picolinamide]","adverse effects on core organ systems (cardiovascular, central nervous, respiratory)",[1],No findings
same,genotoxic risk,[2],No findings indicating significant genotoxic risk
same,adrenal gland effect,corticosterone [3],dose-dependent adrenal gland atrophy
same,decrease of corticosterone values on Days 1 and 7 (maximum),corticosterone [3],≤ 92%
same,target organ toxicity finding,[4]; 28-day rat study,foamy macrophages in the lungs
same,consistency of rat lung findings with drug-induced PLD,[4]; rat lung,not to be consistent with drug-induced PLD
same,role of CYP2C8 in catalyzing oxidative metabolism,CYP2C8,may also have a minor contribution
same,role of CYP2D6 in catalyzing oxidative metabolism,CYP2D6,may also have a minor contribution
same,role of CYP3A4 in catalyzing oxidative metabolism,CYP3A4,plays a key role
same,ACTH-mediated G-protein activation and subsequent cAMP production,MC2R [5],potently blocked
same,primary metabolic pathways involved in metabolic clearance,[6],"oxidative metabolism, resulting in formation of hydroxylated and desmethyl metabolites"
same,adverse event observed during treatment,[7],Glucocorticoid deficiency was observed
same,target organ toxicity finding,[8]; 3-month dog study,adrenal and liver atrophy
same,adrenal gland and liver findings with hydrocortisone supplementation,[8]; dog,mitigated with hydrocortisone supplementation
same,selectivity over other human melanocortin receptor subtypes,[9],> 2900 fold
same,adrenal gland effect,corticosterone [10],dose-dependent adrenal gland atrophy
same,decrease of corticosterone values on Days 1 and 7 (maximum),corticosterone [10],≤ 92%
same,Angiotensin-II stimulation of aldosterone,aldosterone; during treatment,did not affect
same,ACTH-stimulated aldosterone levels,aldosterone; in vivo,reduced
same,Ang-II stimulated aldosterone after discontinuation,aldosterone; [14],suppressed
same,sodium and potassium levels after discontinuation,aldosterone; [14],normal
same,selectivity for hMC2R over 5-HT1B,5-HT1B receptor,more than 2200 fold
same,agonist activity against the 5-HT1B receptor,5-HT1B receptor; off-target screen,no agonist activity
same,antagonist activity against the 5-HT1B receptor,5-HT1B receptor; off-target screen,weak antagonist
same,effect of food on absorption,[11],minimal effect of food on absorption
same,ACTH binding to the receptor,MC2R [12],potently blocked
same,Ki,MC2R [12],< 10 nM
same,corticosterone secretion after 1 μg/kg ACTH (1-24),"[13]; oral, 3 and 10 mg/kg, male and female rats",dose-dependently suppressed
same,"corticosterone after ACTH administration at 1, 4, 24, and 48 hours after a single dose","[13]; single dose, time course",dose-dependent suppression of corticosterone at 1 and 4 hours only
